Data: ChEMBL document CHEMBL1133411, “The design, synthesis and activity of non-ATP competitive inhibitors of pp60(c-src) tyrosine kinase. Part 2: hydroxyindole derivatives” (Bioorg Med Chem Lett, 2000)
Calls of active or inactive are those of the source.

Experiments:
[1] = biological target: Proto-oncogene tyrosine-protein kinase Src (Homo sapiens) (UniProt P12931); test: Percent inhibition determined against human recombinant p60 c-Src tyrosine kinase at 100 uM
[2] = biological target: Proto-oncogene tyrosine-protein kinase Src (Homo sapiens) (UniProt P12931); test: Percent inhibition against human recombinant p60 c-Src tyrosine kinase at 500 uM
[3] = biological target: Proto-oncogene tyrosine-protein kinase Src (Homo sapiens) (UniProt P12931); test: Percent inhibition of human recombinant p60 c-Src tyrosine kinase at 100 uM (inactive)

Chain of Proto-oncogene tyrosine-protein kinase Src (Homo sapiens) (P12931 2-536 limits assumed): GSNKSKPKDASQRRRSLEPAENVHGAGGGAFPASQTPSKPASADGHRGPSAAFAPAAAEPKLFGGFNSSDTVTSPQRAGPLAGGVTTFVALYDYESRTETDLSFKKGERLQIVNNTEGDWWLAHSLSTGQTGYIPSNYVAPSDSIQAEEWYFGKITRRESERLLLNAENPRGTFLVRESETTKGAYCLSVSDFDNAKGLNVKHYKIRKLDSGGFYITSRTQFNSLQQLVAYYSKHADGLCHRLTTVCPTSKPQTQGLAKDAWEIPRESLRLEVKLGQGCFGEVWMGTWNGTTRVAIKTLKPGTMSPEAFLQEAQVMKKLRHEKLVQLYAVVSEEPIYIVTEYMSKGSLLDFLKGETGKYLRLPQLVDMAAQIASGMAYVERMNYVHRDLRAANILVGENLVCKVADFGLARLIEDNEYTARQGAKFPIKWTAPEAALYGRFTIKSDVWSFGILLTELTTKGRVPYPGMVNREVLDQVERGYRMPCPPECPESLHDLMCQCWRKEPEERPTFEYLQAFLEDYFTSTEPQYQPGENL

Row | SMILES | inhibition [1] [%] | further results
1 | O=C(Nc1ccc(O)cc1)c1cc2cc(O)ccc2[nH]1 | 45 | 
2 | O=C(O)Cc1ccc(NC(=O)c2cc3cc(O)ccc3[nH]2)cc1 | 7 | 
3 | COC(=O)c1cc2cc(O)ccc2[nH]1 |  | inhibition [2]: 40%
4 | O=C(O)c1ccc(CNC(=O)c2cc3cc(O)ccc3[nH]2)cc1 |  | inhibition [3]: inactive
5 | COc1ccccc1NC(=O)c1cc2cc(O)ccc2[nH]1 | 3 | 
6 | O=C(NCc1ccc(O)cc1)c1cc2ccccc2[nH]1 | 36 | 
7 | COC(=O)Cc1ccc(NC(=O)c2cc3cc(O)ccc3[nH]2)cc1 | 32 | 
8 | COc1cccc(NC(=O)c2cc3cc(O)ccc3[nH]2)c1 | 21 | 
9 | CCOC(=O)c1cc2cc(O)c(O)cc2[nH]1 | 28 | 

The next lines start with results.

Row | inhibition [1] [%] | SMILES | further results
10 | 54 | O=C(NCc1ccc(O)cc1)c1cc2cc(O)ccc2[nH]1 | 
11 | 18 | COc1ccc(CNC(=O)c2cc3cc(O)ccc3[nH]2)cc1 | 
12 | 11 | COC(=O)c1ccc(CNC(=O)c2cc3cc(O)ccc3[nH]2)cc1 | 
13 | 15 | C[C@@H](NC(=O)c1cc2cc(O)ccc2[nH]1)c1cccc(O)c1 | 
14 | 74 | O=C(NCc1cccc(O)c1)c1cc2cc(O)ccc2[nH]1 | 
15 | 57 | O=C(NCc1cccc(F)c1)c1cc2cc(O)ccc2[nH]1 | 
16 | 13 | C[C@H](NC(=O)c1cc2cc(O)ccc2[nH]1)c1cccc(O)c1 | 
17 | 21 | O=C(Nc1cccc(F)c1)c1cc2cc(O)ccc2[nH]1 | 
18 | 21 | COc1ccccc1CNC(=O)c1cc2cc(O)ccc2[nH]1 | 
19 | 24 | O=C(NCc1ccccc1O)c1cc2cc(O)ccc2[nH]1 | 
20 | 30 | O=C(Nc1cccc(O)c1)c1cc2cc(O)ccc2[nH]1 | 
21 | 43 | O=C(Nc1ccccc1O)c1cc2cc(O)ccc2[nH]1 | 
